Data: patent US10412965B2, “Use of the antifungal ilicicolin H in agriculture” (AGROBIOLOGICS, LLC, priority 2015, dated 2019)
Converted amounts (≈) assume the structure as drawn.

Tests used:
[1] = test system: Glomerella lagenarium (Colletotrichum lagenarium); assay: Liquid-culture fungal growth inhibition test; assay type: cell-based
[2] = test system: Gibberella zeae; assay type: cell-based; conditions: 20 ppm
[3] = test system: Pythium ultimum; assay: Liquid-culture fungal growth inhibition test; assay type: cell-based; conditions: antifungal activity relative to untreated check, photometric, 2-7 days
[4] = test system: Uromyces viciae-fabae; assay type: in vivo; conditions: 100 ppm
[5] = test system: Sclerotinia sclerotiorum; assay: Liquid-culture fungal growth inhibition test; assay type: cell-based
[6] = test system: Mycosphaerella arachidis (Cercospora arachidicola); assay: Liquid-culture fungal growth inhibition test; assay type: cell-based
[7] = test system: Magnaporthe grisea (Pyricularia oryzae); assay type: in vivo; conditions: rice, preventative, disease control relative to untreated check
[8] = test system: Pythium dissimile; assay type: cell-based; conditions: 20 ppm
[9] = test system: Phytophthora infestans; assay type: in vivo; conditions: 200 ppm
[10] = test system: Blumeria graminis f. sp. tritici (Erysiphe graminis); assay: Leaf disk test at different concentrations, wheat; assay type: in vivo; conditions: preventative, disease control relative to untreated check
[11] = test system: Plasmopara viticola; assay: Leaf disk test at different concentrations, grapevine; assay type: in vivo; conditions: preventative, disease control relative to untreated check
[12] = test system: Puccinia recondita; assay: Leaf disk test at different concentrations, wheat; assay type: in vivo; conditions: for Leaf-piece test rates (20 ppm), efficacy / Leaf-piece test rates (60 ppm), efficacy / Leaf-piece test rates (200 ppm), efficacy: wheat, disease control relative to untreated check
[13] = test system: Thanatephorus cucumeris (Rhizoctonia solani); assay: Liquid-culture fungal growth inhibition test; assay type: cell-based
[14] = test system: Monographella nivalis (Microdochium nivale); assay: Liquid-culture fungal growth inhibition test; assay type: cell-based
[15] = test system: Pyrenophora teres; assay: Leaf disk test at different concentrations, barley; assay type: in vivo; conditions: preventative, disease control relative to untreated check
[16] = test system: HeLa cells; conditions: cited from earlier work
[17] = test system: Fusarium culmorum; assay: Liquid-culture fungal growth inhibition test; assay type: cell-based; conditions: antifungal activity relative to untreated check, photometric, 2-7 days
Description: Suspensions of mycelial fragments or conidia of a fungal species, prepared either freshly from liquid cultures of the fungus or from cryogenic storage, were directly mixed into nutrient broth. DMSO solutions of Ilicicolin H (max. 10 mg/ml) were diluted with 0.025% Tween 20 by a factor of 50, and 10μ L of this solution was pipetted into a microtitre plate (96-well format). The nutrient broth containing the fungal spores/mycelia fragments was then added to give a final concentration of Ilicicolin H. The test plates were incubated in the dark at 24° C. and 96% relative humidity. The inhibition of fungal growth was determined photometrically after 2-7 days, depending on the pathosystem, and percent antifungal activity relative to the untreated check was calculated.

[18] = test system: Zymoseptoria tritici; assay type: in vivo; conditions: 100 ppm
[19] = test system: Phytophthora infestans; assay type: in vivo; conditions: tomato, preventative, disease control relative to untreated check
[20] = test system: Botryotinia fuckeliana (Botrytis cinerea); assay: Liquid-culture fungal growth inhibition test; assay type: cell-based
[21] = test system: Gaeumannomyces graminis; assay: Liquid-culture fungal growth inhibition test; assay type: cell-based
[22] = test system: Alternaria solani; assay: Leaf disk test at different concentrations, tomato; assay type: in vivo; conditions: preventative, disease control relative to untreated check
[23] = test system: Zymoseptoria tritici; assay: Liquid-culture fungal growth inhibition test; assay type: cell-based
[24] = test system: Alternaria solani; assay type: cell-based; conditions: 20 ppm
[25] = test system: Phaeosphaeria nodorum (Septoria nodorum); assay: Leaf disk test at different concentrations, wheat; assay type: in vivo; conditions: preventative, disease control relative to untreated check
[26] = test system: Botryotinia fuckeliana; assay type: cell-based; conditions: 20 ppm
[27] = test system: mice; conditions: cited from earlier work
[28] = 0.2 ppm, antifungal activity relative to untreated check, photometric, 2-7 days
[29] = 2 ppm, antifungal activity relative to untreated check, photometric, 2-7 days
[30] = 20 ppm, antifungal activity relative to untreated check, photometric, 2-7 days

## C/C=C/[C@H]1C(C(=O)c2c(O)c(-c3ccc(O)cc3)c[nH]c2=O)C=C(C)[C@H]2CC[C@H](C)C[C@@H]21 (stereo partly shown) [Ilicicolin H]
[1]
  activity in liquid-culture test: demonstrated activity
[1]; [28]
  Liquid-culture test rates (0.2 ppm), efficacy: 0%
[1]; [29]
  Liquid-culture test rates (2 ppm), efficacy: 50%
[1]; [30]
  Liquid-culture test rates (20 ppm), efficacy: 100%
[2]
  activity in mycelial growth test: not active
[2]; artificial media, visual 3 band score, 4 to 14 days after inoculation
  Disease control efficacy (average of two repeat experiments): 0
[3]; 0.2 ppm
  Liquid-culture test rates (0.2 ppm), efficacy: 0%
[3]; 2 ppm
  Liquid-culture test rates (2 ppm), efficacy: 0%
[3]; 20 ppm
  Liquid-culture test rates (20 ppm), efficacy: 0%
[4]
  Disease control efficacy (average of two repeat experiments): 49
  activity in leaf-piece assay: active in one rep
[5]
  activity in liquid-culture test: demonstrated activity
[5]; [28]
  Liquid-culture test rates (0.2 ppm), efficacy: 0%
[5]; [29]
  Liquid-culture test rates (2 ppm), efficacy: 20%
[5]; [30]
  Liquid-culture test rates (20 ppm), efficacy: 50%
[6]
  activity in liquid-culture test: demonstrated activity
[6]; [28]
  Liquid-culture test rates (0.2 ppm), efficacy: 0%
[6]; [29]
  Liquid-culture test rates (2 ppm), efficacy: 100%
[6]; [30]
  Liquid-culture test rates (20 ppm), efficacy: 100%
[7]; 20 ppm
  Leaf-piece test rates (20 ppm), efficacy: 0%
[7]; 60 ppm
  Leaf-piece test rates (60 ppm), efficacy: 0%
[7]; 200 ppm
  Leaf-piece test rates (200 ppm), efficacy: 0%
[8]
  Disease control efficacy (average of two repeat experiments): 0
  activity in mycelial growth test: not active
[9]; tomato
  activity in leaf-piece assay: active
[9]; tomato leaf piece, applied prior to inoculation, visual 3 band score
  Disease control efficacy (average of two repeat experiments): 99
[10]; 20 ppm
  Leaf-piece test rates (20 ppm), efficacy: 0%
[10]; 60 ppm
  Leaf-piece test rates (60 ppm), efficacy: 0%
[10]; 200 ppm
  Leaf-piece test rates (200 ppm), efficacy: 0%
[11]; 20 ppm
  Leaf-piece test rates (20 ppm), efficacy: 0%
[11]; 60 ppm
  Leaf-piece test rates (60 ppm), efficacy: 0%
[11]; 200 ppm
  Leaf-piece test rates (200 ppm), efficacy: 0%
[12]; curative
  Leaf-piece test rates (20 ppm), efficacy: 0%
  Leaf-piece test rates (60 ppm), efficacy: 0%
  Leaf-piece test rates (200 ppm), efficacy: 0%
[12]; preventative
  Leaf-piece test rates (20 ppm), efficacy: 0%
  Leaf-piece test rates (60 ppm), efficacy: 50%
  Leaf-piece test rates (200 ppm), efficacy: 90%
[12]; wheat leaf disks
  activity in leaf disk test: demonstrated activity
[13]
  activity in liquid-culture test: demonstrated activity
[13]; [28]
  Liquid-culture test rates (0.2 ppm), efficacy: 0%
[13]; [29]
  Liquid-culture test rates (2 ppm), efficacy: 50%
[13]; [30]
  Liquid-culture test rates (20 ppm), efficacy: 70%
[14]
  activity in liquid-culture test: demonstrated activity
[14]; [28]
  Liquid-culture test rates (0.2 ppm), efficacy: 0%
[14]; [29]
  Liquid-culture test rates (2 ppm), efficacy: 100%
[14]; [30]
  Liquid-culture test rates (20 ppm), efficacy: 100%
[15]; 20 ppm
  Leaf-piece test rates (20 ppm), efficacy: 0%
[15]; 60 ppm
  Leaf-piece test rates (60 ppm), efficacy: 0%
[15]; 200 ppm
  Leaf-piece test rates (200 ppm), efficacy: 0%
[16]
  ED50 (cytotoxicity): 2 µg/mL (≈ 4.61 µM)
[17]; 0.2 ppm
  Liquid-culture test rates (0.2 ppm), efficacy: 0%
[17]; 2 ppm
  Liquid-culture test rates (2 ppm), efficacy: 0%
[17]; 20 ppm
  Liquid-culture test rates (20 ppm), efficacy: 0%
[18]
  Disease control efficacy (average of two repeat experiments): 99
  activity in leaf-piece assay: active
[19]; 20 ppm
  Leaf-piece test rates (20 ppm), efficacy: 0%
[19]; 60 ppm
  Leaf-piece test rates (60 ppm), efficacy: 0%
[19]; 200 ppm
  Leaf-piece test rates (200 ppm), efficacy: 0%
[20]
  activity in liquid-culture test: demonstrated activity
[20]; [28]
  Liquid-culture test rates (0.2 ppm), efficacy: 0%
[20]; [29]
  Liquid-culture test rates (2 ppm), efficacy: 70%
[20]; [30]
  Liquid-culture test rates (20 ppm), efficacy: 100%
[21]
  activity in liquid-culture test: demonstrated activity
[21]; [28]
  Liquid-culture test rates (0.2 ppm), efficacy: 0%
[21]; [29]
  Liquid-culture test rates (2 ppm), efficacy: 90%
[21]; [30]
  Liquid-culture test rates (20 ppm), efficacy: 100%
[22]; 20 ppm
  Leaf-piece test rates (20 ppm), efficacy: 0%
[22]; 60 ppm
  Leaf-piece test rates (60 ppm), efficacy: 0%
[22]; 200 ppm
  Leaf-piece test rates (200 ppm), efficacy: 0%
[23]
  activity in liquid-culture test: demonstrated activity
[23]; [28]
  Liquid-culture test rates (0.2 ppm), efficacy: 90%
[23]; [29]
  Liquid-culture test rates (2 ppm), efficacy: 100%
[23]; [30]
  Liquid-culture test rates (20 ppm), efficacy: 100%
[24]
  Disease control efficacy (average of two repeat experiments): 0
  activity in mycelial growth test: not active
[25]; 20 ppm
  Leaf-piece test rates (20 ppm), efficacy: 0%
[25]; 60 ppm
  Leaf-piece test rates (60 ppm), efficacy: 0%
[25]; 200 ppm
  Leaf-piece test rates (200 ppm), efficacy: 0%
[26]
  Disease control efficacy (average of two repeat experiments): 99
  activity in mycelial growth test: active
[27]
  acute toxicity: low acute toxicity
